Measurements taken from patent US6689742B1, “NY-ESO-1 peptide derivatives, and uses thereof” (Chancellors, Masters and Scholars of the University of …, priority 2000, dated 2004).

Legend:
[1] = test system: NY-ESO-1 157-165 specific CTLs; assay: CTL assays of modified peptides; assay type: cell-based, human
Protocol: All of these peptides were tested in CTL assays of the type described supra.

[2] = test system: HLA-A2 restricted NY-ESO-1 specific CTLs (CTL NW38-IVS-1); assay: 51Cr release cytotoxicity assay, peptide-pulsed T2 cells with CTL NW38-IVS-1; assay type: cell-based, human; settings: 10 ug/ml peptide, effector/target ratio 90:1, four hours
Protocol: Samples of T2 cells were labelled with 100 uCi of Na(^51Cr)O4, using standard methods, and were then washed three times, followed by incubation with 10 ug/ml peptide and 2.5 ug/ml of β2-microglobulin. Incubation was for one hour, at room temperature. Then responder cells (100 ul of a suspension of CTL NW38-IVS-1) were added, at an effector/target ratio of 90:1, and incubated for four hours in a water saturated atmosphere, with 5% CO2, at 37° C. Then, plates were centrifuged at 200×g for five minutes, 100 ul of supernatant was removed, and radioactivity was measured. The percentage of ^51Cr release was determined in accordance with known strategies.

HLA-A*0201 molecules = HLA-A*0201 molecules (Homo sapiens, UniProt P04439, D140Y/D185E/D98H/E176V/E277Q/G131W/G231S/I119V/I121R/I166T/I218V/L300P/L318F/N151K/N90K/P208A/P217A/Q86G/Q94H/R138H/R169H/T345S); assay: functional competition binding assay (inhibition of lysis of SEQ ID NO: 4 pulsed T2 cells by CTL clone LAU 132/2)
Protocol: The functional competition binding assay employed is that taught by Valmori, et al., J. Immunol 161:6956-6962 (1998), incorporated by reference, but elaborated upon herein.
(SEQ ID NO: 4) is known to bind to HLA-A*0201 molecules, and to provoke lysis by an HLA-A*0201 restricted CTL clone, known as LAU 132/2. […] T2 cells were labelled with ^51Cr, in the presence of anti class I monoclonal antibody W6/32. […] Then, a suboptimal dose (1 nM) of SEQ ID NO: 4 (50 μl) were added, together with 50 μl of the T cells (5000 cells/well). ^51Cr release was measured after 4 hours incubation at 37° C. […] In order to facilitate the comparison, relative competitive activity of each peptide was calculated as [nM] […] 50% value determined for the test peptides.

[3] = test system: ESO1 specific CTL clone ESO5; assay: recognition by specific CTLs, 51Cr release from peptide-pulsed T2 cells; assay type: cell-based, human; settings: for EC50: T2 targets, CTL clone ESO5, lymphocyte:target ratio 30:1, 4 hours, read-out: Peptide ([nM] 50%), concentration giving 50% maximal activity; for Relative antigenic activity: [nM] 50% of SEQ ID NO: 2 divided by [nM] 50% of test peptide
Protocol: As indicated, supra, the peptides described herein were tested for recognition by specific CTLs. In these experiments, target T2 cells were labelled with ^51Cr for 1 hour, at 37° C., and then washed two times. Sample (1000 labelled cells in 50 μl) were then incubated with varying concentrations of peptide, for 15 minutes. Effector cells (50 μl) were then added. These effector cells are ESO1 specific CTL clone ESO5. The lymphocyte: target ratio was 30:1. Chromium release was measured after 4 hours of incubation at 37° C., by testing 100 μl supernatant samples.
Specific percent lysis was calculated as: [formula]

clonal CTLs = assay: recognition of peptide-pulsed T2 cells by clonal CTLs, 51Cr release; assay type: cell-based, human; settings: T2 cells pulsed with varying concentrations of peptide
Protocol: Varying concentrations of peptide were used to pulse T2 cells. […] The same ^51Cr release assay described supra was used. Prior to testing the CTLs, these were assayed to determine if they each expressed a single T cell receptor.

[4] = test system: NY-ESO-1 specific T cells (tumor infiltrating lymphocytes); assay: IFN-γ ELISPOT of short term tumor infiltrating lymphocyte culture with T2 cells plus peptide; assay type: cell-based, human; settings: 1 μM peptide, 2×10^3 cultured cells/well, 5×10^4 T2 cells/well; control cultures 19 spots
Text: Samples of lymph nodes or metastatic lesions were taken from a patient who presented slowly progressive melanoma with recurrent metastases, all of which were localized to the same paravertebral region. […] Further, the patient's serum indicated high titer of anti-NY-ESO-1 antibodies.
The surgically resected lymph nodes or metastatic lesions were finely minced in sterile, RPMI 1640 medium that had been supplemented with 10% fetal calf serum. Suspensions of cells were placed in 24-well tissue culture plates, in 2 ml of Iscove's Dulbecco medium, supplemented with 0.24 mM Asn, 0.55 mM Arg, 1.5 mM Gln, 10% pooled human A+ serum, 100 U/ml IL-2, and 10 ng/ml of IL-7. The cells were cultured for 2-3 weeks, prior to being assayed via IFN-γ ELISPOT, in accordance with Czerkinsky, et al, J. Immunol. Meth 110:29 ([…]), incorporated by reference. In brief, 2×10^3 cells/well of the short term culture referred to supra were combined with either 5×10^4 T2 cells/well, or the same number of T2 cells, plus 1 μM of one of SEQ ID NOS: 1-3. Each culture was run in duplicate.

[5] = test system: NA8-MEL (A2+, NY-ESO-1-) cells; assay: 51Cr release assay, CTL ESO5 on A2+ melanoma cell lines with or without peptide; assay type: cell-based, human; settings: exogenously added peptide; not lysed when absent
Protocol: Cell lines NA8-MEL (A2^+, NY-ESO-1^−), SK-MEL37 (A2^+, NY-ESO-1^+), and Me 275 (A2^+, NY-ESO-1^+) were tested, in ^51Cr release assays, as described supra.

[6] = test system: SEQ ID NO: 2 specific CTLs; assay: killing specificity of tetramer-sorted CTLs, 51Cr release; assay type: cell-based, human; settings: 1 μM peptide, effector/target ratios 1:1 and 0.3:1; unpulsed T2 not killed
Protocol: These tetramers were then used to stain a sample of cells taken from a patient who had been diagnosed previously as having a NY-ESO-1 positive melanoma. See Dunbar, et al., J. Immunol 162(12):6959-62(1999) and Ser. No. 09/049,850, filed Mar. 27, 1998, incorporated by reference. In brief, however, peripheral blood lymphocyte (“PBL”) samples were stained with tetramers for 15 minutes at 37° C., followed by washing in PBS/1% FCS at 37° C., followed by incubation with a labelled, anti-CD8 antibody for 30 minutes, on ice. The cells were then washed three times, in ice cold PBS/1% FCS, and were then analyzed via flow cytometry.
The CTLs described supra were then tested for killing specificity. […] Killing was determined using the ^51Cr release assay described supra.

CTLs = assay: 51Cr release assay in presence of reducing agent (DTT or TCEP); assay type: cell-based, human; settings: 200 μM DTT or TCEP

Substance | stimulation of HLA-A2 restricted NY-ESO-1 specific CTLs (51Cr release) [2] | EC50 [3] [nM] | recognition by all T cells (clonal CTLs) (clonal CTLs) | also measured
SLLMWITQI (Mutagen 9 Synthesized. At position 9, of SEQ ID NO2,Cys is replaced by Ile) [SEQ ID NO: 12] | – | – | – | increase of recognition by NY-ESO-1 157-165 specific CTLs as compared to SEQ ID NO: 2 [1]: about 1000 fold
QLSLLMWIT [SEQ ID NO: 3, natural NY-ESO-1 peptide] | three best stimulators | 50 | recognized | fold less efficient competitor than SEQ ID NO: 4 (HLA-A*0201 molecules): 100 fold; Relative antigenic activity [3]: 0.012
SLLMWITQC [SEQ ID NO: 2, natural NY-ESO-1 peptide, parental peptide] | three best stimulators | 0.6 | recognized | mean number of spots (IFN-γ ELISPOT) [4]: 424 spots; lysis of NA8-MEL by CTL ESO5 when peptide added [5]: lysed; recognition by CTL, in words ([3]; CTL clone ESO5, compared with parental peptide SEQ ID NO: 2): optimally recognized antigenic peptide; killing of peptide-pulsed T2 cells by CTLs [6]: killed; increase of antigenicity in the presence of reducing agent (CTLs): 10 fold
SLLMWITQCI (Mutagen 10 Synthesized. At position 10 of SEQ ID NO 11, Phe is replaced by Ile) [SEQ ID NO: 14] | – | – | – | recognition compared to SEQ ID NO: 2, in words [1]: recognized more efficiently
SLLMWITQCFL [SEQ ID NO: 1, natural NY-ESO-1 peptide] | three best stimulators | 50 | failed to recognize | mean number of spots (IFN-γ ELISPOT) [4]: 396 spots; Relative antigenic activity [3]: 0.012
SLLMWITQCF (listed as Homo sapiens) [SEQ ID NO: 11] | – | – | recognized | –
157-164: a peptide consisting of the first 8 amino acids of SEQ ID NO: 11 (SLLMWITQ; listed as Homo sapiens) | – | – | failed to recognize | –
SLLMWITQL [SEQ ID NO: 7] | – | 0.01 | – | increase of recognition by NY-ESO-1 157-165 specific CTLs as compared to SEQ ID NO: 2 [1]: about 1000 fold
